Assay results taken from ChEMBL document CHEMBL1671654, “In vivo activity of the pyrrolopyrazolyl-substituted oxazolidinone RWJ-416457” (Antimicrob Agents Chemother, 2009).
Converted amounts (≈) assume the structure as drawn. The source made the active and inactive calls. The rule behind the calls is not given here.

Legend:
[1] = system: Staphylococcus aureus; test: Antibacterial activity against community-associated methicillin-resistant Staphylococcus aureus OC8525 infected in sc dosed Swiss Webster mouse administered at 1 to 3 hrs post infection measured after 3 days; type: functional
[2] = system: Staphylococcus aureus; test: Antibacterial activity against methicillin-susceptible Staphylococcus aureus ATCC 13709 infected in iv dosed Swiss Webster mouse administered at 1 to 3 hrs post infection measured after 3 days; type: functional; details: ATCC 13709, iv
[3] = system: Staphylococcus aureus; test: Antibacterial activity against community-associated methicillin-resistant Staphylococcus aureus OC8525 infected in SKH1 mouse assessed as log reduction in CFU/g skin up to 25 mg/kg/day, sc administered post infection measured after 48 hrs; type: functional, organism-based
[4] = system: Staphylococcus aureus; test: Bacteriostatic activity against methicillin-susceptible Staphylococcus aureus Smith ATCC 13709 infected in SKH1 mouse upto 25 mg/kg/day, sc administered post infection measured after 48 hrs; type: functional, organism-based
[5] = system: Staphylococcus aureus; test: Antibacterial activity against community-associated methicillin-resistant Staphylococcus aureus OC8525 infected in iv dosed Swiss Webster mouse administered at 1 to 3 hrs post infection measured after 3 days; type: functional
[6] = system: Staphylococcus aureus; test: Antibacterial activity against methicillin-susceptible Staphylococcus aureus ATCC 13709 infected in sc dosed Swiss Webster mouse administered at 1 to 3 hrs post infection measured after 3 days; type: functional; details: ATCC 13709, sc
[7] = system: Staphylococcus aureus; test: Antibacterial activity against community-associated methicillin-resistant Staphylococcus aureus OC8525 infected in po dosed Swiss Webster mouse administered at 1 to 3 hrs post infection measured after 3 days; type: functional
[8] = system: Mus musculus; test: fAUC (0 to 24 hrs) in CF-1 mouse at 2 mg/kg, iv; type: ADME, organism-based; parameters: dose 2 mg/kg, route intravenous; details: in vivo
[9] = system: Mus musculus; test: fCmax in CF-1 mouse at 2 mg/kg, iv; type: ADME, organism-based; parameters: dose 2 mg/kg, route intravenous; details: in vivo
[10] = system: Streptococcus pneumoniae; test: Antibacterial activity against penicillin-susceptible Streptococcus pneumoniae ATCC 6301 infected in iv dosed Swiss Webster mouse administered at 1 to 3 hrs post infection measured after 3 days; type: functional; details: ATCC 6301, iv
[11] = AUC (0 to 24 hrs) in CF-1 mouse at 10 mg/kg, sc; type: ADME, organism-based; parameters: time < 24 hr, dose 10 mg/kg, route subcutaneous; details: plasma
[12] = system: Streptococcus pneumoniae; test: Antibacterial activity against penicillin-susceptible Streptococcus pneumoniae ATCC 6301 after 16 to 20 hrs by broth microdilution method relative to Linezolid; type: functional
[13] = Tmax in CF-1 mouse serum at 10 mg/kg, po; type: ADME, organism-based; parameters: dose 10 mg/kg, route oral
[14] = system: Staphylococcus aureus; test: Antibacterial activity against community-associated methicillin-resistant Staphylococcus aureus OC8525 after 16 to 20 hrs by broth microdilution method; type: functional
[15] = system: Streptococcus pneumoniae; test: Antibacterial activity against penicillin-susceptible Streptococcus pneumoniae ATCC 6301 infected in sc dosed Swiss Webster mouse administered at 1 to 3 hrs post infection measured after 3 days; type: functional; details: ATCC 6301, sc
[16] = Ratio of fAUC (24 hrs) for Methicillin-susceptible Staphylococcus aureus ATCC 13709 infected sc dosed mouse to MIC for Methicillin-susceptible Staphylococcus aureus ATCC 1370; type: functional
[17] = system: Mus musculus; test: fAUC (0 to 24 hrs) in CF-1 mouse at 10 mg/kg, po; type: ADME, organism-based; parameters: dose 10 mg/kg, route oral; details: in vivo
[18] = Apparent oral clearance in CF-1 mouse at 10 mg/kg, po; type: ADME, organism-based; parameters: dose 10 mg/kg, route oral; details: in vivo
[19] = AUC (0 to 24 hrs) in CF-1 mouse at 2 mg/kg, iv; type: ADME, organism-based; parameters: time < 24 hr, dose 2 mg/kg, route intravenous; details: plasma
[20] = system: Staphylococcus aureus; test: Antibacterial activity against Methicillin-susceptible Staphylococcus aureus ATCC 13709 after 16 to 20 hrs by broth microdilution method relative to Linezolid; type: functional
[21] = Half life in CF-1 mouse at 2 mg/kg, iv; type: ADME, organism-based; parameters: dose 2 mg/kg, route intravenous; details: in vivo
[22] = Ratio of fAUC (24 hrs) for penicillin-susceptible Streptococcus pneumoniae ATCC 6301 infected sc dosed mouse to MIC for penicillin-susceptible Streptococcus pneumoniae ATCC 6301; type: functional
[23] = system: Staphylococcus aureus; test: Antibacterial activity against community-associated methicillin-resistant Staphylococcus aureus OC8525 infected in SKH1 mouse assessed as log reduction in CFU/g skin up to 320 mg/kg/day, po administered post infection measured after 48 hrs; type: functional
[24] = system: Staphylococcus aureus; test: Antibacterial activity against methicillin-susceptible Staphylococcus aureus ATCC 13709 infected in po dosed Swiss Webster mouse administered at 1 to 3 hrs post infection measured after 3 days; type: functional; details: ATCC 13709, po
[25] = system: Streptococcus pneumoniae; test: Antibacterial activity against penicillin-susceptible Streptococcus pneumoniae ATCC 6301 infected in po dosed CF-1 mouse administered at 24 hrs post infection measured after 48 hrs relative to Linezolid; type: functional
[26] = Tmax in CF-1 mouse serum at 10 mg/kg, sc; type: ADME, organism-based; parameters: dose 10 mg/kg, route subcutaneous
[27] = Clearance in CF-1 mouse at 2 mg/kg, iv; type: ADME, organism-based; parameters: dose 2 mg/kg, route intravenous; details: in vivo
[28] = Cmax in CF-1 mouse at 10 mg/kg, sc; type: ADME, organism-based; parameters: dose 10 mg/kg, route subcutaneous; details: in vivo
[29] = Cmax in CF-1 mouse at 10 mg/kg, po; type: ADME, organism-based; parameters: dose 10 mg/kg, route oral; details: in vivo
[30] = system: Staphylococcus aureus; test: Antibacterial activity against community-associated methicillin-resistant Staphylococcus aureus OC8525 infected in SKH1 mouse assessed as log reduction in CFU/g skin at 5 mg/kg/day, po administered post infection measured after 48 hrs; type: functional, organism-based
[31] = Half life in CF-1 mouse at 10 mg/kg, po; type: ADME, organism-based; parameters: dose 10 mg/kg, route oral; details: in vivo
[32] = Ratio of fAUC (24 hrs) for Methicillin-susceptible Staphylococcus aureus ATCC 13709 infected po dosed mouse to MIC for Methicillin-susceptible Staphylococcus aureus ATCC 1370; type: functional
[33] = Cmax in CF-1 mouse at 2 mg/kg, iv; type: ADME, organism-based; parameters: dose 2 mg/kg, route intravenous; details: in vivo
[34] = Ratio of fAUC (24 hrs) for community-associated methicillin-resistant Staphylococcus aureus OC8525 infected po dosed mouse to MIC for community-associated methicillin-resistant Staphylococcus aureus OC8525; type: functional
[35] = system: Mus musculus; test: fCmax in CF-1 mouse at 10 mg/kg, sc; type: ADME, organism-based; parameters: dose 10 mg/kg, route subcutaneous; details: in vivo
[36] = Half life in CF-1 mouse at 10 mg/kg, sc; type: ADME, organism-based; parameters: dose 10 mg/kg, route subcutaneous; details: in vivo
[37] = Ratio of fAUC (24 hrs) for community-associated methicillin-resistant Staphylococcus aureus OC8525 infected iv dosed mouse to MIC for community-associated methicillin-resistant Staphylococcus aureus OC8525; type: functional
[38] = Apparent oral clearance in CF-1 mouse at 10 mg/kg, sc; type: ADME, organism-based; parameters: dose 10 mg/kg, route oral; details: in vivo
[39] = system: Staphylococcus aureus; test: Antibacterial activity against Methicillin-susceptible Staphylococcus aureus ATCC 13709 after 16 to 20 hrs by broth microdilution method; type: functional
[40] = system: Staphylococcus aureus; test: Antibacterial activity against Methicillin-susceptible Staphylococcus aureus assessed as skin lesion size; type: functional
[41] = system: Staphylococcus aureus; test: Antibacterial activity against methicillin-susceptible Staphylococcus aureus Smith ATCC 13709 infected in SKH1 mouse assessed as log reduction in CFU/g skin at => 80 mg/kg/day, po administered post infection measured after 48 hrs; type: functional
[42] = system: Staphylococcus aureus; test: Antibacterial activity against Methicillin-resistant Staphylococcus aureus assessed as skin lesion size; type: functional
[43] = system: Staphylococcus aureus; test: Bacteriostatic activity against methicillin-susceptible Staphylococcus aureus Smith ATCC 13709 infected in SKH1 mouse at 20 mg/kg/day, po administered post infection measured after 48 hrs; type: functional, organism-based
[44] = system: Mus musculus; test: fAUC (0 to 24 hrs) in CF-1 mouse at 10 mg/kg, sc; type: ADME, organism-based; parameters: dose 10 mg/kg, route subcutaneous; details: in vivo
[45] = system: Mus musculus; test: fCmax in CF-1 mouse at 10 mg/kg, po; type: ADME, organism-based; parameters: dose 10 mg/kg, route oral; details: in vivo
[46] = AUC (0 to 24 hrs) in CF-1 mouse at 10 mg/kg, po; type: ADME, organism-based; parameters: time < 24 hr, dose 10 mg/kg, route oral; details: plasma
[47] = Ratio of fAUC (24 hrs) for penicillin-susceptible Streptococcus pneumoniae ATCC 6301 infected po dosed mouse to MIC for penicillin-susceptible Streptococcus pneumoniae ATCC 6301; type: functional
[48] = system: Streptococcus pneumoniae; test: Antibacterial activity against penicillin-susceptible Streptococcus pneumoniae ATCC 6301 after 16 to 20 hrs by broth microdilution method; type: functional
[49] = Ratio of fAUC (24 hrs) for community-associated methicillin-resistant Staphylococcus aureus OC8525 infected sc dosed mouse to MIC for community-associated methicillin-resistant Staphylococcus aureus OC8525; type: functional
[50] = system: Staphylococcus aureus; test: Antibacterial activity against methicillin-susceptible Staphylococcus aureus Smith ATCC 13709 infected in SKH1 mouse assessed as log reduction in CFU/g skin at 5 mg/kg/day, po administered post infection measured after 48 hrs; type: functional, organism-based
[51] = Ratio of fAUC (24 hrs) for Methicillin-susceptible Staphylococcus aureus ATCC 13709 infected iv dosed mouse to MIC for Methicillin-susceptible Staphylococcus aureus ATCC 1370; type: functional
[52] = system: Streptococcus pneumoniae; test: Antibacterial activity against penicillin-susceptible Streptococcus pneumoniae ATCC 6301 infected in po dosed Swiss Webster mouse administered at 1 to 3 hrs post infection measured after 3 days; type: functional; details: ATCC 6301, po
[53] = Ratio of fAUC (24 hrs) for penicillin-susceptible Streptococcus pneumoniae ATCC 6301 infected iv dosed mouse to MIC for penicillin-susceptible Streptococcus pneumoniae ATCC 6301; type: functional

With `CN[C@H](CC(C)C)C(=O)N[C@H]1C(=O)N[C@@H](CC(N)=O)C(=O)N[C@H]2C(=O)N[C@H]3C(=O)N[C@H](C(=O)N[C@H](C(=O)O)c4cc(O)cc(O)c4-c4cc3ccc4O)[C@H](O)c3ccc(c(Cl)c3)Oc3cc2cc(c3O[C@@H]2O[C@H](CO)[C@@H](O)[C@H](O)[C@H]2O[C@H]2C[C@](C)(N)[C@H](O)[C@H](C)O2)Oc2ccc(cc2Cl)[C@H]1O` [VANCOMYCIN] the ED50 [1] was 12 mg/kg/day, the ED50 [2] was 0.9 mg/kg/day and the Activity [3] was “inactive”. For the same compound, the Activity [4] was “Active”, the ED50 [5] was 5.6 mg/kg/day and the ED50 [6] was 1.7 mg/kg/day.

In the case of `CC(=O)NC[C@H]1CN(c2ccc(N3Cc4cn(C)nc4C3)c(F)c2)C(=O)O1`, the ED50 [7] is reported as 2.1 mg/kg/day, the fAUC [8] is reported as 1700 ng·h/mL and the ED50 [1] is reported as 3.5 mg/kg/day. It also gave a fCmax [9] of 2.4 µg/mL, an ED50 [10] of 18 mg/kg/day and an AUC(0-t) at 24 h [11] of 15000 ng·h/mL. The ED50 [2] was 4 mg/kg/day, the “fold change (FC)” value [12] was 2 and the Tmax [13] was 2 h. For the same compound, the MIC [14] was 2 µg/mL (≈ 5.36 µM), the ED50 [15] was 9.3 mg/kg/day and the fAUC/MIC [16] was 8.3. It also gave a fAUC [17] of 13000 ng·h/mL, a CL/F [18] of 7.17 mL/min/kg and an AUC(0-t) at 24 h [19] of 3200 ng·h/mL. For the same compound, the “fold change (FC)” value [20] was 2, the half-life [21] was 1.5 h and the fAUC/MIC [22] was 8.3. The FC [23] was 1, the ED50 [24] was 3.4 mg/kg/day and the “fold change (FC)” value [25] was 2. It also gave an ED50 ([25]; Streptococcus pneumoniae, ATCC 6301, po) of 3.1 mg/kg/day, a Tmax [26] of 0.5 h and a clearance [27] of 10.5 mL/min/kg. For the same compound, the Cmax [28] was 7500 ng/mL, the Cmax [29] was 3500 ng/mL and the Activity [30] was “inactive”. For the same compound, the half-life [31] was 3.4 h, the fAUC/MIC [32] was 13 and the Cmax [33] was 4400 ng/mL. For the same compound, the fAUC/MIC [34] was 6.3, the fCmax [35] was 4.1 µg/mL and the half-life [36] was 2 h. The fAUC/MIC [37] was 4.3, the CL/F [38] was 10.8 mL/min/kg and the MIC [39] was 1 µg/mL (≈ 2.68 µM). It also gave an Activity [40] of 14%, an FC [41] of 0.9 and an Activity [42] of 23%. The Activity [43] was “Active”, the fAUC [44] was 8300 ng·h/mL and the fCmax [45] was 1.9 µg/mL. For the same compound, the ED50 [5] was 1.5 mg/kg/day, the AUC(0-t) at 24 h [46] was 23000 ng·h/mL and the fAUC/MIC [47] was 13. For the same compound, the ED50 [6] was 4.7 mg/kg/day, the MIC [48] was 1 µg/mL (≈ 2.68 µM) and the fAUC/MIC [49] was 4.1. The Activity [50] was “inactive”, the fAUC/MIC [51] was 8.6 and the ED50 [52] was 3.1 mg/kg/day. It also gave a fAUC/MIC [53] of 8.6.
